Laboratory results as given in patent US11634443B2, “Treprostinil prodrugs” (United Therapeutics Corporation, priority 2019, dated 2023).
Where two headings read alike, the source gives them in different places.

Tests used:
[1] = molecular target: T1, prostaglandin D2 (PGD2) receptor 1 (DP1) (Homo sapiens, UniProt Q13258); assay: DP1 receptor cAMP assay (agonist mode); format: cell-based; details: Table 24; relative to treprostinil EC50 values; * partial agonists or ambiguous dose-response curves; image character = too high to realistically calculate
T1 construct: expressed in transfected cells; host or cells: HEK293T
T1 sequence (Q13258 1-359): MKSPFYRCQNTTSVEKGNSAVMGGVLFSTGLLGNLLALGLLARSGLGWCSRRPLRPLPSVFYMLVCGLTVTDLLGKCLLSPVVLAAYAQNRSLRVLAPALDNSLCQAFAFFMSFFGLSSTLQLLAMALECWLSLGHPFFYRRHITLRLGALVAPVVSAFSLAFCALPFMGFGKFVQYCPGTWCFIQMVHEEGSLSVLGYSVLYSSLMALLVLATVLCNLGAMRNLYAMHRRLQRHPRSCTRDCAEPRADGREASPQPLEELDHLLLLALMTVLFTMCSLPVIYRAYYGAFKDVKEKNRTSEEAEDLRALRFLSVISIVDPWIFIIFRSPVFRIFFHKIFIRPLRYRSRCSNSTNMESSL
Method: (§1) Gas Cyclic AMP (cAMP) Assay: In agonist mode testing, cells were seeded in a 384-well plate at an appropriate density and then were treated with compounds and incubated at 37° C. for 20 minutes. The reaction was terminated by sequentially adding sequentially adding trFluor™ Eu-labeled cAMP and trFluor™ 650-labeled anti-cAMP antibody in lysis buffer. […] All testing wells contained 0.1% DMSO in the final concentrations.
(§2) Data in graphs are represented in Mean±SD. Dose-dependent responses were fitted with sigmoidal dose-response curves allowing variable slopes using GraphPad Prism version 6 (Graphpad Prism).

[2] = molecular target: T2, prostaglandin I2 (PGI2) receptor (IP) (Homo sapiens, UniProt P43119); assay: IP receptor cAMP assay (agonist mode); format: cell-based; details: Table 24; relative to treprostinil EC50 values; * partial agonists or ambiguous dose-response curves; image character = too high to realistically calculate
T2 construct: expressed in transfected cells; host or cells: CHO-K1
T2 sequence (P43119 whole entry): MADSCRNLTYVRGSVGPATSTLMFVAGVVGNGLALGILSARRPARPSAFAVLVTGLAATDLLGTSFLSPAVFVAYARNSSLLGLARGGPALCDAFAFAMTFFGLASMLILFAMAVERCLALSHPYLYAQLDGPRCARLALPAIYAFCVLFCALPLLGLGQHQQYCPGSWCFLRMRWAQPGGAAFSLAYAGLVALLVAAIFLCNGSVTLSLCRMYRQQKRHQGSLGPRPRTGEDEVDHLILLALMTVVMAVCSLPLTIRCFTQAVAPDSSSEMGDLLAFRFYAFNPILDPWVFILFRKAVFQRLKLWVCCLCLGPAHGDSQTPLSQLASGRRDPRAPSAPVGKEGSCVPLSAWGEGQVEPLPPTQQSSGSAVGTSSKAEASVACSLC
Method: as §1, §2

[3] = Stability and formation of treprostinil in rat cryopreserved hepatocytes
[4] = Stability and formation of treprostinil in dog cryopreserved hepatocytes
[5] = molecular target: T3, prostaglandin E2 (PGE2) receptor 2 (EP2) (Homo sapiens, UniProt P43116); assay: EP2 receptor cAMP assay (agonist mode); format: cell-based; details: Table 24; relative to treprostinil EC50 values; * partial agonists or ambiguous dose-response curves; image character = too high to realistically calculate
T3 construct: expressed in transfected cells; host or cells: HEK293T
T3 sequence (P43116 whole entry): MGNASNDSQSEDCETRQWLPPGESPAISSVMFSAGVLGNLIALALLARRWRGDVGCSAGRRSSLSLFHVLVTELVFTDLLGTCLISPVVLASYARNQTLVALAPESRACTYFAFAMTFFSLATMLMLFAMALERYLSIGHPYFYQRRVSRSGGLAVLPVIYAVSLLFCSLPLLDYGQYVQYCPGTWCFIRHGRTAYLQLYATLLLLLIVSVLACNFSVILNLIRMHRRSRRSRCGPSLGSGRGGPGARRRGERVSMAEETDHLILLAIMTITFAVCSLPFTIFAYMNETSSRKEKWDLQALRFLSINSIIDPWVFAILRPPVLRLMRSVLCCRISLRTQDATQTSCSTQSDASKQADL
Method: as §1, §2

PGE2 receptor 1 (EP1) = molecular target: T4, PGE2 receptor 1 (EP1) (Homo sapiens, UniProt P34995); assay: EP1 receptor calcium assay (agonist mode); format: cell-based; details: Table 24; relative to treprostinil EC50 values; * partial agonists or ambiguous dose-response curves; image character = too high to realistically calculate
T4 construct: expressed in transfected cells; host or cells: HEK293T
T4 sequence (P34995 1-402): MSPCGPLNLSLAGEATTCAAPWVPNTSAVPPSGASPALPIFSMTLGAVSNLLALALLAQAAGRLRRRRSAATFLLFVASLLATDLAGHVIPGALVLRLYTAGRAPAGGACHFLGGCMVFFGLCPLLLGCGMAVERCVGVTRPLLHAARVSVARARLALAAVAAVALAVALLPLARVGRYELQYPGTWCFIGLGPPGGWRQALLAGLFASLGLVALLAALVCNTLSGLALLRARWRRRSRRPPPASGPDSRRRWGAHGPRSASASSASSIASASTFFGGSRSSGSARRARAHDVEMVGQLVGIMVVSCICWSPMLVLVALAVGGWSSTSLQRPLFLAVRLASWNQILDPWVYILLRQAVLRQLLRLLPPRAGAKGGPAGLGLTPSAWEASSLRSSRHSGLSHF
Method: Assay Buffer: • EP1 Calcium and DP1 cAMP Assays: HBSS plus 20 mM HEPES • EP2 and IP1 cAMP Assays: 1 mM IBMX in HBSS plus 20 mM HEPES
Cells were thawed from frozen cells and resuspended in assay buffer at desired concentrations. cAMP or Calcium assays were performed according to the manufacturer's protocol using Multiscreen™ TR-FRET cAMP 1.0 No Wash Assay Kit or Multiscreen™ Calcium 1.0 No Wash Kit.
Calcium Assay: Cells were seeded in a 384-well plate at an appropriate density. The calcium assay was conducted according to the manufacturer's protocols (Multiscreen Calcium 1.0 No Wash Assay Kit). The calcium dye loading buffer was added to the cells and incubated for 1 hour at 37° C. For agonist mode, cells were injected with Iloprost control agonist or test compound by FLIPR and calcium mobilization was monitored for 180 seconds with compound injected into the wells at the 19th second. Fluorescent emissions were read at 525 nm with excitation at 490 nm in a FLIPR 384 instrument (Molecular Devices).
Calcium Assay: Calcium assay results are expressed as “RFU” as defined in figure below. Data are represented in Mean±SEM. Dose-response curves were fitted using “Sigmoidal dose-response (variable slope)” function in GraphPad Prism 6. EC50 values were calculated based on the fitted curves.
Prostaglandin receptor activity assessments with treprostinil and treprostinil analogues have been conducted, and a historical, positive control agonist for these receptors, iloprost (for IP, EP2 and EP1) or PGD2 (for DP1), was also included. These studies used cell lines overexpressing either human IP, EP2 or DP1, or EP1 receptors, and following incubation with varying concentrations of compounds, cAMP levels were measured using Fluorescence Resonance Energy Transfer (FRET). The 665/620 (acceptor/donor emission signals) ratio is inversely proportional to the concentration of cAMP.

[6] = Stability and formation of treprostinil in human cryopreserved hepatocytes
[7] = human, 1 μM
Method: For each of the test articles, 495 μL of skin homogenate was added to triplicate centrifuge tubes. To each tube, 5 μL of a 100 μM solution of test article was added, for a final test article dosing concentration of 1 μM. The tubes were placed onto a Thermomixer and maintained at 37° C. with gentle shaking for the duration of the experiment. At each time point (0, 30, 60, and 120 minutes), a 100 μL aliquot was removed from each tube and combined with 200 μL of acetonitrile to stop the stability reaction. The tubes were mixed and centrifuged at 3000 rpm for 10 minutes. Aliquots of supernatant were removed and diluted 1:1 with distilled water containing internal standard (2 μM treprostinil-d4). Calibration standards for the treprostinil analysis were prepared for each test article in a surrogate matrix (supernatant from a mixture of 1:2 human plasma:acetonitrile), at concentrations ranging from 1 μM to 1 nM. Calibration standards were also diluted 1:1 with distilled water containing internal standard.

[8] = male, Beagle, dog, 1 μM, pH 7.4
Method: (§3) Mixed-gender human liver microsomes, male Sprague-Dawley rat liver microsomes, and male Beagle dog liver microsomes were purchased from XenoTech. The reaction mixture, minus NADPH, was prepared as described below. […] An aliquot of the reaction mixture (without cofactor) was equilibrated in a shaking water bath at 37° C. for 5 minutes. The reaction was initiated by the addition of cofactor, and the mixture was incubated in a shaking water bath at 37° C. Aliquots (200 μL) were withdrawn at 0, 10, 20, 30, and 60 minutes. Test article samples were immediately combined with 400 μL of ice-cold acetonitrile (ACN) to terminate the reaction. […] The samples were then mixed and centrifuged to precipitate proteins. Aliquots of the supernatant were removed, diluted 1:1 into distilled water containing internal standard, and analyzed by LC-MS/MS against calibration standards prepared in a matched matrix. All samples were analyzed for the dosed prodrugs as well as the drug, treprostinil. The test article concentration was compared to the concentration at time 0 to determine the percent of test article remaining at each time point. Half-lives and clearance were calculated using GraphPad software, fitting to a single-phase exponential decay equation.
Liver Microsomes 0.5 mg/mL
Potassium Phosphate, pH 7.4 100 mM

[9] = male, Sprague-Dawley, rat, 1 μM, pH 7.4
Method: as §3
Liver Microsomes 0.5 mg/mL
Potassium Phosphate, pH 7.4 100 mM

[10] = both, human, 1 μM, pH 7.4
Method: as §3
Liver Microsomes 0.5 mg/mL
Potassium Phosphate, pH 7.4 100 mM

[11] = Stability and formation of treprostinil in dog liver microsomes; details: male, Beagle, pH 7.4
Method: as §3
Liver Microsomes 0.5 mg/mL
Potassium Phosphate, pH 7.4 100 mM

[12] = Stability and formation of treprostinil in human liver microsomes; details: both, pH 7.4
Method: as §3
Liver Microsomes 0.5 mg/mL
Potassium Phosphate, pH 7.4 100 mM

[13] = Stability and formation of treprostinil in rat liver microsomes; details: male, Sprague-Dawley, pH 7.4
Method: as §3
Liver Microsomes 0.5 mg/mL
Potassium Phosphate, pH 7.4 100 mM

[14] = cited from earlier work

Compound: CCCCC[C@@H](CC[C@@H]1[C@H]2Cc3cccc(OCC(=O)O)c3C[C@H]2C[C@H]1O)OC(=O)CC [Prodrug LV, treprostinil side chain propionic ester]
- Activity, DP1 Relative to Tre [1]: 94x
- Activity, IP Relative to Tre [2]: 54x
- Treprostinil Concentration, 0 min [3]: 0.0159 µM
- Treprostinil Concentration, 15 min [3]: 0.506 µM
- Treprostinil Concentration, 30 min [3]: 0.48 µM
- Treprostinil Concentration, 60 min [3]: 0.424 µM
- Treprostinil Concentration, 120 min [3]: 0.391 µM
- Treprostinil Concentration, 0 min [4]: 0.124 µM
- Treprostinil Concentration, 15 min [4]: 0.781 µM
- Treprostinil Concentration, 30 min [4]: 0.698 µM
- Treprostinil Concentration, 60 min [4]: 0.599 µM
- Treprostinil Concentration, 120 min [4]: 0.53 µM
- Activity, EP2 Relative to Tre [5]: 50x
- Activity, EP1 Relative to Tre (PGE2 receptor 1 (EP1)): 122x*
- Treprostinil Concentration, 0 min [6]: 0.113 µM
- Treprostinil Concentration, 15 min [6]: 0.725 µM
- Treprostinil Concentration, 30 min [6]: 0.654 µM
- Treprostinil Concentration, 60 min [6]: 0.589 µM
- Treprostinil Concentration, 120 min [6]: 0.527 µM

Compound: CCCCC[C@@H](CC[C@@H]1[C@H]2Cc3cccc(OCC(=O)O)c3C[C@H]2C[C@H]1O)OC(C)=O [Prodrug XLIII, 2-(((1R,2R,3aS,9aS)-1-((S)-3-acetoxyoctyl)-2-hydroxy-2,3,3a,4,9,9a-hexahydro-1H-cyclopenta[b]naphthalen-5-yl)oxy)acetic acid]
- Activity, DP1 Relative to Tre [1]: 272x
- Activity, IP Relative to Tre [2]: 632x
- Treprostinil Concentration, 0 min ([7]; 0 min): 0.0034 µM
- Treprostinil Concentration, 30 min ([7]; 30 min): 0.382 µM
- Treprostinil Concentration, 60 min ([7]; 60 min): 0.583 µM
- Treprostinil Concentration, 120 min ([7]; 120 min): 0.839 µM
- Treprostinil Concentration, 0 min ([8]; 0 min): 0.964 µM
- Treprostinil Concentration, 15 min ([8]; 15 min): 0.917 µM
- Treprostinil Concentration, 30 min ([8]; 30 min): 0.899 µM
- Treprostinil Concentration, 60 min ([8]; 60 min): 0.932 µM
- Treprostinil Concentration, 120 min ([8]; 120 min): 0.873 µM
- Treprostinil Concentration, 0 min ([3]; male, Sprague-Dawley, rat, 0 min, 1 μM, pH 7.4): 0.00292 µM
- Treprostinil Concentration, 15 min ([3]; male, Sprague-Dawley, rat, 15 min, 1 μM, pH 7.4): 0.161 µM
- Treprostinil Concentration, 30 min ([3]; male, Sprague-Dawley, rat, 30 min, 1 μM, pH 7.4): 0.266 µM
- Treprostinil Concentration, 60 min ([3]; male, Sprague-Dawley, rat, 60 min, 1 μM, pH 7.4): 0.397 µM
- Treprostinil Concentration, 120 min ([3]; male, Sprague-Dawley, rat, 120 min, 1 μM, pH 7.4): 0.503 µM
- Treprostinil Concentration, 0 min ([4]; male, Beagle, dog, 0 min, 1 μM, pH 7.4): 0.0381 µM
- Treprostinil Concentration, 15 min ([4]; male, Beagle, dog, 15 min, 1 μM, pH 7.4): 0.628 µM
- Treprostinil Concentration, 30 min ([4]; male, Beagle, dog, 30 min, 1 μM, pH 7.4): 0.543 µM
- Treprostinil Concentration, 60 min ([4]; male, Beagle, dog, 60 min, 1 μM, pH 7.4): 0.446 µM
- Treprostinil Concentration, 120 min ([4]; male, Beagle, dog, 120 min, 1 μM, pH 7.4): 0.4 µM
- Activity, EP2 Relative to Tre [5]: 461x
- Activity, EP1 Relative to Tre (PGE2 receptor 1 (EP1)): 20x*
- Treprostinil Concentration, 0 min ([9]; 0 min): 0.035 µM
- Treprostinil Concentration, 15 min ([9]; 15 min): 0.0741 µM
- Treprostinil Concentration, 30 min ([9]; 30 min): 0.111 µM
- Treprostinil Concentration, 60 min ([9]; 60 min): 0.145 µM
- Treprostinil Concentration, 120 min ([9]; 120 min): 0.206 µM
- Treprostinil Concentration, 0 min ([6]; both, human, 0 min, 1 μM, pH 7.4): 0.00744 µM
- Treprostinil Concentration, 15 min ([6]; both, human, 15 min, 1 μM, pH 7.4): 0.573 µM
- Treprostinil Concentration, 30 min ([6]; both, human, 30 min, 1 μM, pH 7.4): 0.623 µM
- Treprostinil Concentration, 60 min ([6]; both, human, 60 min, 1 μM, pH 7.4): 0.54 µM
- Treprostinil Concentration, 120 min ([6]; both, human, 120 min, 1 μM, pH 7.4): 0.507 µM
- Treprostinil Concentration, 0 min ([10]; 0 min): 0.883 µM
- Treprostinil Concentration, 15 min ([10]; 15 min): 0.681 µM
- Treprostinil Concentration, 30 min ([10]; 30 min): 0.602 µM
- Treprostinil Concentration, 60 min ([10]; 60 min): 0.513 µM
- Treprostinil Concentration, 120 min ([10]; 120 min): 0.341 µM

Compound: C[C@]12CC[C@H]3[C@@H](CCC4=CC(=O)CC[C@@]43C)[C@@H]1CC[C@@H]2O [Testosterone, testosterone]
- Half-Life [11]: 37.7 min
- microsomal CLint [11]: 36.8 µL/min/mg
- Half-Life [12]: 29.2 min
- microsomal CLint [12]: 47.5 µL/min/mg
- hepatocyte CLint at 1 μM ([3]; male, Sprague-Dawley, rat, hepatocytes, pH 7.4): 448 µL/min/1e6 cells
- half-life at 1 μM ([4]; male, Beagle, dog, hepatocytes, pH 7.4): 6.5 min
- hepatocyte CLint at 1 μM ([6]; both, human, hepatocytes, pH 7.4): 95.9 µL/min/1e6 cells
- Half-Life [13]: 1.71 min
- microsomal CLint [13]: 809 µL/min/mg

Compound: CCCCC[C@H](O)CC[C@@H]1[C@H]2Cc3cccc(OCC(=O)OCC)c3C[C@H]2C[C@H]1O [Treprostinil ethyl ester]
- Activity, DP1 Relative to Tre [1]: 18x
- Activity, IP Relative to Tre [2]: 35x
- Activity, EP2 Relative to Tre [5]: 11x
- Activity, EP1 Relative to Tre (PGE2 receptor 1 (EP1)): 30x

Compound: CCCCC[C@H](O)CC[C@@H]1[C@H]2Cc3cccc(OCC(=O)O)c3C[C@H]2C[C@H]1O [treprostinil, Treprostinil]
- First-pass effect ([14]; oral delivery, animal studies): approximately 60%
- Half-life once absorbed ([14]; regardless of the route of administration): about 1 hour
